In this assay the target is T1, L191A/S15V-hP2X3R (Homo sapiens, UniProt P56373, L191A/S15V).
T1 construct: expressed in transfected cells; host or cells: Xenopus laevis oocytes (cRNA injection)
T1 sequence (P56373 1-397 S15V/L191A): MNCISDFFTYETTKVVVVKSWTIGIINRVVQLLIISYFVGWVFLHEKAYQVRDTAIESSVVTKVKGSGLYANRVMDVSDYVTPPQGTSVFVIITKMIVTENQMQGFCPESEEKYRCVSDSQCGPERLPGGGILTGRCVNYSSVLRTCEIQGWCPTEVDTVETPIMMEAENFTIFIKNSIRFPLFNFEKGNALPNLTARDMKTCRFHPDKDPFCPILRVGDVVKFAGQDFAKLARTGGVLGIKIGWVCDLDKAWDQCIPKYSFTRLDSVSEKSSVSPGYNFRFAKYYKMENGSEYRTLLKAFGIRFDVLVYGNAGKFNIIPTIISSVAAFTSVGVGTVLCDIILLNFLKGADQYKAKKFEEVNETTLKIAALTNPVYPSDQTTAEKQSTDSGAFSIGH
Briefly: TEVC of ATP-induced currents, L191A/S15V-hP2X3R mutant in X. laevis oocytes. The assay is classed as cell-based. As for the experimental part:
Ion currents mediated by P2X receptors were evoked by the indicated concentration of ATP or α,β-meATP and were recorded 1 or 2 days after cRNA injection at ambient temperature at a holding potential of −60 mV by two-electrode voltage clamp (TEVC) as previously described ([Hausmann et al., 2006]). Calcium-free ORi^− solution (90 mM NaCl, 1 mM KCl, 2 mM MgCl2, 10 mM HEPES, pH 7.4) was used to avoid bias due to calcium-activated chloride channels (CaCC) endogenously expressed in X. laevis oocytes ([Miledi, 1982]; [Methfessel et al., 1986]). For recordings of wt-hP2X7R, the composition of the ORi^− solution was modified according to protocols described previously and contained 100 mM NaCl, 2.5 mM KCl, 1 mM MgCl2, 5 mM HEPES, pH 7.4 ([Klapperstück et al., 2000]). The oocytes were continuously superfused with ORi^− by gravity flow (5–10 ml/min). The agonists ATP or α,β-meATP and the investigated NSAIDs were diluted in ORi^− on the day of the recording. The following agonist concentrations were used for the different P2X subtypes: 1 μM ATP (hP2X1R mutant, hP2X3R, rP2X3R, S^15V-hP2X3R, and S^15V-rP2X3R); 10 μM ATP (hP2X2R and hP2X4R); 300 μM free ATP^4- (hP2X7R); and 1 μM α,β-meATP (hP2X2/3R). […]
In the case of fast-desensitizing P2XR subtypes (P2X1R and P2X3R), ATP is applied five times in repetition, and the ATP-induced current amplitude in the presence (after pre-incubation) of the antagonist (fourth application) is compared to the arithmetic mean of flanking control ATP-induced current amplitudes in the absence of the antagonist (third and fifth ATP application). […] The correction factor was calculated as the ratio of the fourth ATP-induced current amplitude to the third amplitude (Eq. 3) when the experiment was performed in the absence of the antagonist. […] Since the magnitude of the run-down varies from day to day and batch to batch of oocytes, the correction factor was determined on each day of the experiments and was calculated as the arithmetic mean of several recordings (at least 3–5 and on average 5) on each day. […]

In the case of `O=C(O)Cc1ccccc1Nc1c(Cl)cccc1Cl` [Diclofenac, diclofenac], under “read-out: % inhibition of 10 µM ATP-induced currents by 3 µM diclofenac”, the inhibition at 3 µM is 7.7%. Moreover, for the setting “read-out: % inhibition of 10 µM ATP-induced currents by 10 µM diclofenac”, the inhibition at 10 µM is 18.4%. Also, the inhibition at 30 µM (read-out: % inhibition of 10 µM ATP-induced currents by 30 µM diclofenac) was 37.3%.

The term inhibition denotes the percentage by which the read-out fell short of the control.

The values are drawn from article PMC10060569 (Frontiers in Pharmacology, 2023).
